Source: the supplement of paper PMC11208160

assay: recombinant barcode read abundance after kanamycin selection (control-corrected) (log10(CPM+1)); higher = more efficient recombination; sequences stand for … in AGTGCAGAGAAAATCGGCCAGTTTTCTCTGCCTGCAGTCCGCATGCCGT…AGATTTATGCAGCGGACTGCCTTTCTCCCAAAGTGATAAACCGGACAGTATCATGGACCGGTTTTCCCGGTAATCCGTATTTGCAAGGTTGGTTTCACT; site = the 11-nt target
Method in brief: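 Pooled E. coli screen pairing targets with IS621 bridge RNA target-binding loops. Each oligo (promoter, target, barcode, J23119-driven first 104 bridge RNA bases) was Gibson-cloned into a vector with the remaining 73 bp and T7-inducible recombinase, then co-electroporated with a donor plasmid. Two replicates each were plated on chloramphenicol/ampicillin LB agar (control) or chloramphenicol/ampicillin/kanamycin with 0.1 mM IPTG. Recombination efficiency is recombinant-junction barcode counts as CPM, averaged, control-corrected, reported as log10(CPM+1).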
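Note: IS621 recombinase and bridge RNA in Escherichia coli cells.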

In order of falling “recombinant barcode read abundance (log10)” value:
1. GCTAGGGCTTGGGTTCTAACCTGTTGCAG (site GCTAGGGCTCT)  2.94
2. GCTCGGGCTTGGGTTCTAACCTGTTGCGG (site GCTCGGGCTCC)  2.6
3. GCTGAGACTTGGGTTCTAACCTGTTGCGT (site GCTGAGACTAC)  2.04
4. GCTAAGACTTGGGTTCTAACCTGTTGCTG (site GCTAAGACTCA)  1.93
5. GCGGATCCTTGGGTTCTAACCTGTTGCTA (site GCGGATCCTTA)  1.9
6. GCTAGCCCTTGGGTTCTAACCTGTTGCGG (site GCTAGCCCTCC)  1.83
7. GCTCAGACTTGGGTTCTAACCTGTTGCCT (site GCTCAGACTAG)  1.78
8. GCGTGGACTTGGGTTCTAACCTGTTGCCT (site GCGTGGACTAG)  1.61
9. GCTACCTCTTGGGTTCTAACCTGTTGCCT (site GCTACCTCTAG)  1.6
10. GCGGCTCCTTGGGTTCTAACCTGTTGCAT (site GCGGCTCCTAT)  1.55
11. GCGGGTACTTGGGTTCTAACCTGTTGCCT (site GCGGGTACTAG)  1.47
12. GCCGGGTCTTGGGTTCTAACCTGTTGCTT (site GCAGGGTCTAA)  1.26
13. GCTGAGGCTTGGGTTCTAACCTGTTGCTG (site GCTGAGGCTCA)  1.05
14. GCCGAGTCTTGGGTTCTAACCTGTTGCCT (site GCCGAGTCTAG)  1.03
15. GCCCGTCCTTGGGTTCTAACCTGTTGCCG (site GCCCGTCCTCG)  1
16. GCGTTACCTTGGGTTCTAACCTGTTGCCT (site GCGTTACCTAG)  0.97
17. GCGAACCCTTGGGTTCTAACCTGTTGCGG (site GCGAACCCTCC)  0.967
18. GCCTGCCCTTGGGTTCTAACCTGTTGCCT (site GCCTGCCCTAG)  0.892
19. GCCGGGTCTTGGGTTCTAACCTGTTGCTT (site GCCGGGTCTAA)  0.812
20. GCGTCCTCTTGGGTTCTAACCTGTTGCTT (site GCGTCCTCTAA)  0.636
21. GCCGAGTCTTGGGTTCTAACCTGTTGCTG (site GCCGAGTCTCA)  0.564
22. GCGCGGCCTTGGGTTCTAACCTGTTGCCT (site ACGCGGCCTAG)  0.56
23. GCCGGTCCTTGGGTTCTAACCTGTTGCCT (site GCCGGTCCTAG)  0.549
24. GCCGGTCCTTGGGTTCTAACCTGTTGCCT (site GCAGGTCCTAG)  0.522
25. GCTAGGGCTTGGGTTCTAACCTGTTGCAG (site GCAAGGGCTCG)  0.491
26. GCTCCTACTTGGGTTCTAACCTGTTGCCT (site GGTCCTACTAG)  0.48
27. GCCGGTCCTTGGGTTCTAACCTGTTGCCT (site GCGGGTCCTAG)  0.451
28. GCGACATCTTGGGTTCTAACCTGTTGCCT (site GCGACATCTAG)  0.428
29. GCGTGCCCTTGGGTTCTAACCTGTTGCTA (site GCGTGCCCTTA)  0.356
30. GCCGGGTCTTGGGTTCTAACCTGTTGCTT (site GCTGGGTCTAA)  0.337
31. GCGCGCCCTTGGGTTCTAACCTGTTGCTG (site GCGCGCCCTCA)  0.331
32. GCGGCTCCTTGGGTTCTAACCTGTTGCAT (site GCGTCTCCTAT)  0.331
33. GCGTCCACTTGGGTTCTAACCTGTTGCTA (site GCGTGCCCTTA)  0.299
34. GCTACCTCTTGGGTTCTAACCTGTTGCCT (site GTGACCTCTAG)  0.254
35. GCGCGGCCTTGGGTTCTAACCTGTTGCCT (site GCGCGGCCTAG)  0.253
36. GCTGAGACTTGGGTTCTAACCTGTTGCGT (site CTCTGTCCTCA)  0.237
37. GCGTGGACTTGGGTTCTAACCTGTTGCCT (site GCGTCTACTAG)  0.235
38. GCCGAGTCTTGGGTTCTAACCTGTTGCTG (site GCCGAGTCTTA)  0.219
39. GCGTCTACTTGGGTTCTAACCTGTTGCCT (site GCGTCTACTAG)  0.169
40. GCCGTAGCTTGGGTTCTAACCTGTTGCCT (site GGCGTAGCTAG)  0.163
41. GCGACATCTTGGGTTCTAACCTGTTGCCT (site TAAGATGCTCC)  0.162
42. GCGGATCCTTGGGTTCTAACCTGTTGCTA (site AGATTAGCTCG)  0.159
43. GCCGAGTCTTGGGTTCTAACCTGTTGCCT (site GCCGAGTCTGT)  0.142
44. GCCGGTCCTTGGGTTCTAACCTGTTGCCT (site GCTGGTCCTAG)  0.14
45. GCTCAGACTTGGGTTCTAACCTGTTGCCT (site GCTCAGGCTAG)  0.132
46. GCTCCTACTTGGGTTCTAACCTGTTGCCT (site GATCCTACTAG)  0.118
47. GCCCGTCCTTGGGTTCTAACCTGTTGCCG (site CTCCGTCCTCG)  0.116
48. GCCGAGTCTTGGGTTCTAACCTGTTGCTG (site GCCGAGTCTAA)  0.11
49. GCTCCTACTTGGGTTCTAACCTGTTGCCT (site GTTCCTACTAG)  0.108
50. GCGGGTACTTGGGTTCTAACCTGTTGCCT (site GCGTGTACTAG)  0.0951
51. GCTAGCCCTTGGGTTCTAACCTGTTGCGG (site GCGAGCCCTAC)  0.0935
52. GCTCAGACTTGGGTTCTAACCTGTTGCCT (site GCTCAGCCTAG)  0.0925
53. GCCGGGTCTTGGGTTCTAACCTGTTGCTT (site GCGGGGTCTAA)  0.092
54. GCCTGCCCTTGGGTTCTAACCTGTTGCCT (site GACTGCCCTAG)  0.0828
55. GCGGCTCCTTGGGTTCTAACCTGTTGCAT (site GCGACTCCTAT)  0.0805
56. GCGTCCTCTTGGGTTCTAACCTGTTGCTT (site TACCGTCCTCC)  0.0776
57. GCGGCTCCTTGGGTTCTAACCTGTTGCAT (site GCGCCTCCTAT)  0.0751
58. GCTCTAGCTTGGGTTCTAACCTGTTGCCT (site GCACAAGCTAG)  0.0696
59. GCGCGCCCTTGGGTTCTAACCTGTTGCTG (site GCGCGCCCTCC)  0.0616
60. GCGTCCACTTGGGTTCTAACCTGTTGCTA (site GCGTCCACTTA)  0.0606
61. GCCGTAGCTTGGGTTCTAACCTGTTGCCT (site GACGTAGCTAG)  0.0542
62. GCGTTACCTTGGGTTCTAACCTGTTGCCT (site GGGATACCTAG)  0.0535
63. GCGTCTACTTGGGTTCTAACCTGTTGCCT (site GCGTGGACTAG)  0.051
64. GCTCAGACTTGGGTTCTAACCTGTTGCCT (site GCTCAGTCTAG)  0.0442
65. GCGAACCCTTGGGTTCTAACCTGTTGCGG (site GCTAACCCTAC)  0.0412
66. GCGCGGCCTTGGGTTCTAACCTGTTGCCT (site CCGCGGCCTAG)  0.0374
67. GCCTGCCCTTGGGTTCTAACCTGTTGCCT (site GTCTGCCCTAG)  0.0318
68. GCTCTAGCTTGGGTTCTAACCTGTTGCCT (site GCTCTAGCTAG)  0.0295
69. GCCGTAGCTTGGGTTCTAACCTGTTGCCT (site GCCGTAGCTAG)  0.0284
70. GCTCCTACTTGGGTTCTAACCTGTTGCCT (site GCTCCTACTAG)  0.0272
71. GCTAAGACTTGGGTTCTAACCTGTTGCTG (site GGTAAGACTCC)  0.0258
72. GCCTGCCCTTGGGTTCTAACCTGTTGCCT (site GGCTGCCCTAG)  0.0211
73. GCGCGGCCTTGGGTTCTAACCTGTTGCCT (site TCGCGGCCTAG)  0.0177
74. GCTCGGGCTTGGGTTCTAACCTGTTGCGG (site ATGTCCTCTTG)  0.0124
75. GCCGTAGCTTGGGTTCTAACCTGTTGCCT (site GTCGTAGCTAG)  0.00812
76. GCGTGCCCTTGGGTTCTAACCTGTTGCTA (site GCGTCCACTTA)  0.00781
77. GCCGAGTCTTGGGTTCTAACCTGTTGCTG (site GCCGAGTCTGA)  0
